Source: patent US20190247398A1, “FORMULATIONS OF A MACROCYCLIC TRK KINASE INHIBITOR” (Array BioPharma Inc., priority 2017, published 2019)
Like-named read-outs stand apart in the source and are kept apart here.

Experiments:
Type in all cases: physicochemical
[1] = Salt disproportionation studies; conditions: deionized water, 24 h, ambient temperature
Experimental: Salt disproportionation studies were carried out as follows: 20 mg of prepared salts were weighed into a vial and 0.5 mL of deionized water was added. The samples were then agitated for 24 h at ambient temperature. The pH of the samples was taken pre- and post-agitation. Any solids recovered were submitted for XRPD analysis to determine any changes to form.

[2] = Hydration screen (acetone/water mixtures of various water activities); conditions: ambient
Experimental: Hydration screen was carried out as follows: 10 mg of prepared salts were suspended in several acetone/water mixtures of various water activities (low: aw=0.281, medium: aw=0.776 and high: aw=0.919) and agitated at ambient temperatures for 24 hr. Any recovered solids were submitted for XRPD analysis to determine any changes to form.

[3] = Dynamic vapor sorption (DVS)
Experimental: Approximately, 10 mg of sample was placed into a mesh vapor sorption balance pan and loaded into a DVS-1 dynamic vapor sorption balance by Surface Measurement Systems. The sample was subjected to a ramping profile from 40-90% relative humidity (RH) at 10% increments, maintaining the sample at each step until a stable weight had been achieved (99.5% step completion). After completion of the sorption cycle, the sample was dried using the same procedure to 0% RH and then a second sorption cycle back to 40% RH. The weight change during the sorption/desorption cycles were plotted, allowing for the hygroscopic nature of the sample to be determined. XRPD analysis was then carried out on any solid retained.

[4] = Salt stability studies (40° C./75% RH for 1 week, XRPD)
Experimental: Recovered salts were placed in an oven at 40° C./75% RH for 1 week, and the resultant materials were analyzed by XRPD to determine any changes to form or crystallinity.

Thermodynamic solubility = conditions: for solubility thermodynamic at 24 h: thermodynamic from solid, ambient temperature, read-out: Concentration (thermodynamic solubility)
Experimental: Thermodynamic solubility studies were carried out as follows: 10 mg of prepared salts were suspended in pH 1, 4.5, 6.8 and un-buffered water (300 μL). The pH of the slurries was measured and adjusted accordingly using either 0.2M HCl solution or 0.2M sodium hydroxide solution. The slurries were agitated for 24 hours at ambient temperature using an incubator shaker.

[5] = 1 week stability tests (40° C./75% RH, 80° C., ambient light; XRPD and UPLC)
[6] = Gravimetric vapor sorption (GVS)
Experimental: Approximately 10-20 mg of sample was placed into a mesh vapor sorption balance pan and loaded into an IGASorp Moisture Sorption Analyzer balance by Hiden Analytical. […] After completion of the sorption cycle, the sample was dried using the same procedure to 0% RH, and finally taken back to the starting point of 40% RH. The weight change during the sorption/desorption cycles were plotted, allowing for the hygroscopic nature of the sample to be determined.

[7] = high water activity aw=0.919, 24 hr
[8] = low water activity aw=0.281, 24 hr
[9] = pH 6.8 potassium phosphate buffer, aqueous buffer, pH 6.8 buffer
[10] = simulated gastric fluid, pH 1 buffer

Compound	material recovered after salt disproportionation study (XRPD) [1]	solid recovered from hydration screen (XRPD) [2, 7]	solid recovered from hydration screen (XRPD) [2, 8]	solubility thermodynamic at 24 h (Thermodynamic solubility; aqueous buffer, pH 4.5 buffer)	thermodynamic solubility (in words) (Thermodynamic solubility; pH 1)	solids recovered after thermodynamic solubility study (XRPD) (Thermodynamic solubility; pH 4.5)	thermodynamic solubility (in words) (Thermodynamic solubility; pH 4.5)	solids recovered after thermodynamic solubility study (XRPD) (Thermodynamic solubility; pH 6.8)	thermodynamic solubility (in words) (Thermodynamic solubility; pH 6.8)	solubility thermodynamic at 24 h (Thermodynamic solubility; [9])	solubility thermodynamic at 24 h (Thermodynamic solubility; [10])	solubility thermodynamic at 24 h (Thermodynamic solubility; un-buffered water)	solids recovered after thermodynamic solubility study (XRPD) (Thermodynamic solubility; un-buffered water)	thermodynamic solubility (in words) (Thermodynamic solubility; un-buffered water)	change in purity after 1 week stability test (UPLC) ([5]; 80° C.)	change in purity after 1 week stability test (UPLC) ([5]; ambient light)	other results
C[C@@H]1CCc2ncc(F)cc2[C@H]2CCCN2c2ccn3ncc(c3n2)C(=O)N1.O=S(=O)(O)c1ccccc1 [Compound 1 besylate]	poorly crystalline free base	poorly crystalline besylate salt	poorly crystalline besylate salt	12.7 mg/mL	highly soluble	an unknown form	moderately soluble	poorly crystalline free base	low solubility	1.9 mg/mL	30.8 mg/mL	17.9 mg/mL	poorly crystalline free base	moderately soluble	no change to purity	no change to purity	hygroscopicity by DVS (in words) ([3]; DVS humidity conditions): low hygroscopicity; change in crystalline form after exposure to DVS conditions (post-DVS XRPD) ([3]; after DVS cycle): no changes in crystalline form; mass uptake (DVS) ([3]; at 90% RH): about 0.7%; changes to form or crystallinity after stability conditions (XRPD) ([4]; salt recovered from TBME): preferred orientation but no changes to form; changes to form or crystallinity after stability conditions (XRPD) ([4]; salt recovered from THF): an increase to crystallinity but no changes to form; changes to form or crystallinity after stability conditions (XRPD) ([4]; salt recovered from ethanol): a decrease in crystallinity; change to form after 1 week stability test (XRPD) ([5]; 40° C./75% RH): a mixture of besylate salt and something else; change to form after 1 week stability test (XRPD) ([5]; 80° C.): no change to form; change to form after 1 week stability test (XRPD) ([5]; ambient light): no change to form
CS(=O)(=O)O.C[C@@H]1CCc2ncc(F)cc2[C@H]2CCCN2c2ccn3ncc(c3n2)C(=O)N1 [Compound 1 mesylate]	no change to form by XRPD analysis but crystallinity reduced	free base	a mixture of free base and salt	9.3 mg/mL	moderately soluble	mesylate salt	moderately soluble	free base	low solubility	1.5 mg/mL	14.3 mg/mL	9.6 mg/mL	free base	moderately soluble	no change to purity	no change to purity	solid recovered from hydration screen (XRPD) ([2]; medium water activity aw=0.776, 24 hr): mesylate salt; changes to form or crystallinity after stability conditions (XRPD) ([4]; salt recovered from acetone): no changes to crystallinity or form; changes to form or crystallinity after stability conditions (XRPD) ([4]; salt recovered from isopropanol): a slight increase in crystallinity but no changes to form; changes to form or crystallinity after stability conditions (XRPD) ([4]; salt recovered from methanol): a decrease in crystallinity but no changes to form; change in purity after 1 week stability test (UPLC) ([5]; 40° C./75% RH): no change to purity; RH at which the material deliquesced (GVS) ([6]; GVS humidity conditions): 30 % RH; hygroscopicity by GVS (in words) ([6]; GVS humidity conditions): high hygroscopicity; change in crystalline form after exposure to GVS conditions (post-GVS XRPD) ([6]; after GVS cycle): desolvate and become the mesylate form seen in the salt screen; mass uptake (GVS) ([6]; at 90% RH): about 32%
